Assay results from publication PMC11345766, “Computational Design of Pore-Forming Peptides with Potent Antimicrobial and Anticancer Activities” (Journal of Medicinal Chemistry, 2024).
Ends that are not written are not given here.

Columns and labels:
[1] = test system: E. coli (E1098); settings: E1098, 18 h
[2] = test system: MCF-7 cells; experiment: Immunoblotting of cleaved PARP and caspase-3; format: cell-based, human; settings: 1 h treatment; media of different pH
Procedure: Furthermore, immunoblotting detection of cleaved PARP and caspase-3 markers confirmed the induction of apoptosis in MCF-7 cells by the peptides (Figure S10c).
MCF-7 cells were seeded at 2.5 × 10^5 cells/well in a 24-well plate 1 day before the experiment. Cells were treated with either peptides or PBS alone (negative control) and cultured in different media for 1 h. Cells were lysed using a buffer consisting of 1% SDS, 50 mM Tris–HCl (pH 6.8), and 10% glycerol with phosphatase and protease inhibitors. The protein concentration was determined by using the DC Protein Assay (Bio-Rad). Proteins were separated by SDS-PAGE and transferred to the PVDF membrane with a 0.45 μm pore size. The membranes were incubated with primary antibodies to detect cleaved PARP (no. 5625, 1:1000, Cell Signaling), total PARP (no. 9542, 1:2000, Cell Signaling), cleaved caspase-3 (no. 9664, 1:1000, Cell Signaling), or β-actin (no. 4970, 1:2000; Cell Signaling). Secondary HRP-linked antirabbit antibody (1:2000, Cell Signaling) was used to detect primary antibodies. Signal was detected using Clarity Western ECL Substrate (BioRad) and UVITEC Alliance (Uvitec).

[3] = AFM imaging of supported lipid bilayers; settings: P:L 1:500 (1 μM peptide)
Procedure: The SLBs were composed of POPC:POPG (1:1 mol/mol) lipids, the same composition used in the dye leakage assay. […] The pores were stable for an investigation period of 2 h and were visibly more numerous than those produced by LP1.[29]
Effects of peptides on the SLBs composed of POPC:POPG (1:1 mol/mol) lipids was investigated using AFM. LUVs were prepared in lipid dissolution buffer (50 mM Tris–HCl and 50 mM KCl) following a dye leakage assay protocol without calcein. Vesicles were sonicated for 30 min at 25 °C and extruded through a 50 nm pore size filter to form small unilamellar vesicles (SUVs). Following the vesicle deposition method,[103] SLBs were formed on mica using SUVs in SLB-forming buffer (50 mM Tris–HCl and 300 mM KCl) and 5 mM CaCl2, mounting a total volume of 150 μL on mica. After 1 h incubation at 25 °C, mica was washed 10 times with SLB-forming buffer and subjected to AFM analysis. The investigated P:L ratio was 1:500 (mol/mol). Bruker Dimension Icon AFM (USA) equipped with a PeakForce-HIRS-F-B silicon nitride probe (spring constant 0.12 N/m) was used to capture topographic images. PeakForce Quantitative NanoMechanic hybrid mode was used with 2 kHz frequency and 25 nm amplitude using set point <100 pN. The scan rate was 1 Hz using 512 samples/line. […]

KKKKLKKILKKLFQFINQLDNQLQDIKQNK-NH2 [LP1]
MIC [1]: 1 µM

H-HHHHLKKILKKLFQFINQLDNQLQDIHHHH-OH [LP40]
Cleaved PARP and caspase-3 (apoptosis) [2]: higher at pH 6

KKKKLKKILKKLFQFINQLDNQLQDIKKKK-NH2 [LP18]
Membrane defects or pores formed on SLBs [3]: significantly higher number of membrane defects or pores than LP1
